Test results taken from patent US20060063794A1, “Method of attenuating graft rejection” (Fujisawa Pharmaceutical Co., Ltd., priority 2004, published 2006).
“Also recorded” adds a separate entry of the source.

Columns and labels:
[1] = system: chronic kidney allograft rejection; details: cited from earlier work
CMV = details: animal models; cited from earlier work
[2] = system: human kidney transplant recipients; test: Same trial: safety, adverse events, laboratory values, withdrawals; type: in vivo; details: for Median serum creatine value: at study end; for Mean hemoglobin level: day 84
Description: FK778 and placebo were administered in a double-blind manner. […] Patients in arm 2 received one dose of 600 mg/day and continued on 75 mg/day. Subsequent doses were adjusted to maintain trough levels of FK778 in the range of 100-200 μg/mL (arm 1) and 10-100 μg/mL (arm 2). Trough levels of FK778 were centrally determined. Doses of FK778 were adjusted according to the recommendations of an independent panel. Treatment of adults of both genders was studied in a multi-center, randomized, double-blind trial. Three groups were studied. Group H was treated with high dose FK778/tarcolimus/steroids; Group L was treated with low dose FK778/tarcolimus/steroids; and Group P was treated with placebo/Tacrolimus/steroids. Tacrolimus was given as an initial dose of 0.2 mg/kg per os divided into two equal doses, one pre-operatively and one post-operatively. Subsequent doses were adjusted to reach target Tacrolimus whole blood trough concentrations of 10-20 ng/mL on Days 0-30, and 5-15 ng/mL on Days 31-84. Methylprednisolone was perioperatively administered at 1000 mg i.v. or less and 125 mg on Day 1. A prednisolone equivalent was given orally at 20 mg from Day 2-14, at 15 mg on Day 15-28, at 10 mg from Day 29-42 and 5 mg from Day 43-84. Oral tablets of FK778/placebo were administered in a double-blind manner. […] This was the maximum permitted daily dose of FK778. […] Dose adaptations were to be performed from day 7 onwards. Subsequent doses were adjusted to maintain plasma trough levels of FK778 in the target ranges of 100-200 μg/mL (H) and 10-100 μg/mL (L). The primary efficacy endpoint was the incidence of AR proven by local biopsy over the first 12 weeks. […] On a continuous basis safety was assessed by patient and graft survival, adverse event monitoring, routine laboratory evaluations and vital signs. Treatment emergent adverse events were coded according to the MedDRA dictionary (version 5.0). All analyses were based on the full analysis set which included all patients randomised who received at least one dose of FK778/placebo (intent-to-treat principle). Decreasing Kaplan-Meier plots were provided. Pair-wise comparisons of the incidence of adverse events between the treatment groups were made using Fisher's exact test.

[3] = system: B-cell proliferation; T cells; details: in vitro, FK778 in combination with Tacrolimus (FK506); cited from earlier work
[4] = Same trial: FK778 plasma trough levels; type: in vivo, human
Description: Patients in group H received loading doses of 600 mg/day on Day 1 and 2 and continued on 150 mg/day. This was the maximum permitted daily dose of FK778. Patients in group L received 600 mg/day only on Day 1 and continued on 75 mg/day. Dose adaptations were to be performed from day 7 onwards. Subsequent doses were adjusted to maintain plasma trough levels of FK778 in the target ranges of 100-200 μg/mL (H) and 10-100 μg/mL (L).
The assay of FK778 trough concentrations were centrally performed in an independent laboratory and an independent unblinded pharmacokinetic (PK)-panel (Covance, UK) used the plasma FK778 levels to make dose adjustments when necessary. In addition, dummy adjustments in the placebo arm were performed. Concentrations were determined initially every other day, from day 14-42 weekly, and afterwards every other week.

C#CCC/C(O)=C(\C#N)C(=O)Nc1ccc(C(F)(F)F)cc1 [FK778, (2Z)-2-cyano-3-hydroxy-N-[4-(trifluromethyl)phenyl]-2-hepten-6-ynamide]
Optimal dose ([1]; rat, given for ten days following transplantation): 10 mg/kg/day | Effect on chronic kidney allograft rejection ([1]; rats): prevented chronic kidney allograft rejection; also recorded: reduced functional and histologic chronic kidney allograft rejection | Effect on CMV disease (CMV): attenuates CMV disease | Overall assessment of the trial ([2]; FK778 with Tacrolimus and corticosteroids, renal transplantation): pharmacologically active, well tolerated, and safe; also recorded: pharmacologically active, well tolerated and safe | Anemias NEC, number of patients ([2]; High level FK778 (group H)): 21 | Angina pectoris, number of patients ([2]; High level FK778 (group H)): 1 | Hyperkalemia (%) ([2]; High level FK778 (group H)): (4.1) % | Hyperkalemia, number of patients ([2]; High level FK778 (group H)): 2 | Hypokalemia (%) ([2]; High level FK778 (group H)): (12.2) % | Hypokalemia, number of patients ([2]; High level FK778 (group H)): 6 | Ischemic coronary artery disorders (%) ([2]; High level FK778 (group H)): (4.1) % | Ischemic coronary artery disorders, number of patients ([2]; High level FK778 (group H)): 2 | Myocard. Ischemia, number of patients ([2]; High level FK778 (group H)): 1 | O. NOS, number of patients ([2]; High level FK778 (group H)): 1 | O. hemorrhagic, number of patients ([2]; High level FK778 (group H)): 1 | Oesophagilis (%) ([2]; High level FK778 (group H)): (8.2) % | Oesophagilis, number of patients ([2]; High level FK778 (group H)): 4 | Reflux O., number of patients ([2]; High level FK778 (group H)): 2 | Withdrawn: Adverse event (%) ([2]; High level FK778 (group H)): (18.4) % | Withdrawn: Adverse event, number of patients ([2]; High level FK778 (group H)): 9 | Withdrawn: Death (%) ([2]; High level FK778 (group H)): (2.0) % | Withdrawn: Death, number of patients ([2]; High level FK778 (group H)): 1 | Withdrawn: Graft failure (%) ([2]; High level FK778 (group H)): (6.1) % | Withdrawn: Graft failure, number of patients ([2]; High level FK778 (group H)): 3 | Withdrawn from treatment (%) ([2]; High level FK778 (group H) + Tacrolimus/steroids): (28.6) % | Withdrawn from treatment, number of patients ([2]; High level FK778 (group H) + Tacrolimus/steroids, N=49): 14 | Anemias NEC, number of patients ([2]; Low level FK778 (group L)): 17 | Angina pectoris, number of patients ([2]; Low level FK778 (group L)): 5 | Hyperkalemia (%) ([2]; Low level FK778 (group L)): (11.1) % | Hyperkalemia, number of patients ([2]; Low level FK778 (group L)): 6 | Hypokalemia (%) ([2]; Low level FK778 (group L)): (0.0) % | Hypokalemia, number of patients ([2]; Low level FK778 (group L)): 0 | Ischemic coronary artery disorders (%) ([2]; Low level FK778 (group L)): (13.0) % | Ischemic coronary artery disorders, number of patients ([2]; Low level FK778 (group L)): 7 | Myocard. Infarction, number of patients ([2]; Low level FK778 (group L)): 1 | Myocard. Ischemia, number of patients ([2]; Low level FK778 (group L)): 1 | Oesophagilis (%) ([2]; Low level FK778 (group L)): (0.0) % | Oesophagilis, number of patients ([2]; Low level FK778 (group L)): 0 | Withdrawn: Adverse event (%) ([2]; Low level FK778 (group L)): (13.0) % | Withdrawn: Adverse event, number of patients ([2]; Low level FK778 (group L)): 7 | Withdrawn: Graft failure (%) ([2]; Low level FK778 (group L)): (5.6) % | Withdrawn: Graft failure, number of patients ([2]; Low level FK778 (group L)): 3 | Withdrawn from treatment (%) ([2]; Low level FK778 (group L) + Tacrolimus/steroids): (25.9) % | Withdrawn from treatment, number of patients ([2]; Low level FK778 (group L) + Tacrolimus/steroids, N=54): 14 | Withdrawn: Death, number of patients ([2]; Low level FK778 (group L), one patient died the day after withdrawal): 0 | Reversibility of anemia ([2]; after cessation of FK778 treatment): reversible after cessation of FK778 treatment; also recorded: quickly reversed after cessation of FK778 treatment | Systolic and diastolic blood pressure values ([2]; both FK778 arms): trend towards lower | Mean total cholesterol and mean LDL-cholesterol levels, lower compared to placebo group ([2]; both FK778 groups, during the treatment phase): ~20% | Bilirubin levels ([2]; group H): slightly elevated | Median serum creatine value ([2]; group H): 138 µmol/L | Mean hemoglobin level ([2]; group H): 102.6 g/L | Patients who died during the study ([2]; group H, high level FK778): one | Median serum creatine value ([2]; group L): 149 µmol/L | Mean hemoglobin level ([2]; group L): 119 g/L | Patients who died during the study ([2]; group L, low level FK778): one | Liver enzyme values ([2]; throughout the study): no changes | Effect in T cells [3]: antagonistic tendency | Effect on B-cell proliferation [3]: synergistic inhibition of B-cell proliferation | Maximum FK778 plasma trough level ([4]; group H, Day 3): 142.4 µg/mL | Median FK778 plasma trough level ([4]; group H, Day 3): 84.34 µg/mL | Mean FK778 plasma trough level ([4]; group H, Day 3, after loading doses 600 mg/day on Day 1 and 2): 86.97 ± 26.23 µg/mL | Mean FK778 plasma trough level ([4]; group H, Day 7): 93.58 µg/mL | Mean FK778 plasma trough level ([4]; group H, Day 28): 175.66 µg/mL | Median FK778 plasma trough level ([4]; group L, Day 2): 41.35 µg/mL | Mean FK778 plasma trough level ([4]; group L, Day 2, after loading dose 600 mg/day on Day 1): 38.30 ± 21.14 µg/mL | Mean FK778 plasma trough level ([4]; group L, Day 11): 31.53 ± 21.26 µg/mL | Median FK778 plasma trough level ([4]; group L, Day 11): 28.35 µg/mL | Mean FK778 plasma trough level ([4]; group L, Day 42): 62.36 ± 27.60 µg/mL | Median FK778 plasma trough level ([4]; group L, Day 42): 59.36 µg/mL
